# According to US8802597B2, “Herbicidal pyrimidines” (E I du Pont de Nemours and Company, priority 2003, dated 2014):
# Assays:
# Assay type in all cases: in vivo
# [1] = system: lambsquarters (Chenopodium album); test: Test D pre/postemergence; conditions: scale 0 to 100 (100 = complete control)
# How it was run: (§1)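 Pre: seeds sown, then treated. Post: plants at 1- to 4-leaf stage (2 to 18 cm) sprayed at the same time. Chemicals formulated in a non-phytotoxic solvent mixture including surfactant. After 15 to 25 days under controlled growth conditions, response rated visually from 0 (no effect) to 100 (complete control).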
# [2] = system: wild buckwheat (Polygonum convolvulus); test: Test D pre/postemergence; conditions: scale 0 to 100 (100 = complete control)
# How it was run: as §1
# [3] = system: wheat (Triticum aestivum); test: Test D pre/postemergence; conditions: scale 0 to 100 (100 = complete control)
# How it was run: as §1
# [4] = system: kochia (Kochia scoparia); test: Test D pre/postemergence; conditions: scale 0 to 100 (100 = complete control)
# How it was run: as §1
# [5] = system: common chickweed (Stellaria media); test: Test D pre/postemergence; conditions: scale 0 to 100 (100 = complete control)
# How it was run: as §1
# [6] = system: wild mustard (Sinapis arvensis); test: Test D pre/postemergence; conditions: scale 0 to 100 (100 = complete control)
# How it was run: as §1
# [7] = system: Russian thistle (Salsola kali); test: Test D pre/postemergence; conditions: scale 0 to 100 (100 = complete control)
# How it was run: as §1
# [8] = system: common sowthistle (Sonchus oleraceous); test: Test G pre/postemergence
# How it was run: (§2)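 Visual scores from 0 (no effect) to 100 (complete control) were assigned relative to untreated controls 12 to 21 days after treatment. Compounds, formulated in a non-phytotoxic solvent mixture with surfactant, were applied preemergence to planted seed or postemergence to plants at the 1- to 4-leaf stage (2 to 18 cm).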
# [9] = system: common purslane (Portulaca oleracea); test: Test G pre/postemergence
# How it was run: as §2
# [10] = system: common groundsel (Senecio vulgaris); test: Test G pre/postemergence
# How it was run: as §2
# [11] = system: spanishneedles (Bidens bipinnata); test: Test G pre/postemergence
# How it was run: as §2
# [12] = system: kochia (Kochia scoparia); test: Test G pre/postemergence
# How it was run: as §2
# [13] = Preemergence, 62 g ai/ha, scale 0-100
# [14] = Preemergence, 125 g ai/ha, scale 0-100
# [15] = Preemergence, 250 g ai/ha, scale 0-100
# [16] = Preemergence, 500 g ai/ha, scale 0 to 100
# [17] = Postemergence, 8 g ai/ha, scale 0 to 100
# [18] = Postemergence, 16 g ai/ha, scale 0 to 100
# [19] = Postemergence, 31 g ai/ha, scale 0 to 100
# [20] = Postemergence, 62 g ai/ha, scale 0 to 100
# [21] = Preemergence, 8 g ai/ha, scale 0-100
# [22] = Preemergence, 16 g ai/ha, scale 0-100
# [23] = Preemergence, 31 g ai/ha, scale 0-100
# [24] = Postemergence, 250 g ai/ha, scale 0 to 100
# [25] = Postemergence, 125 g ai/ha, scale 0 to 100
smiles,measurement,setting,value
"CCOC(=O)c1nc(C2CC2)nc(N)c1Cl [Compound 4, ethyl 6-amino-5-chloro-2-cyclopropyl-4-pyrimidinecarboxylate]","Plant response rating, Lambsquarters","[1]; Postemergence, 16 g ai/ha",95
same,"Plant response rating, Lambsquarters","[1]; Postemergence, 31 g ai/ha",100
same,"Plant response rating, Lambsquarters","[1]; Postemergence, 62 g ai/ha",100
same,"Plant response rating, Lambsquarters","[1]; Postemergence, 125 g ai/ha",100
same,"Plant response rating, Lambsquarters","[1]; Preemergence, 16 g ai/ha",70
same,"Plant response rating, Lambsquarters","[1]; Preemergence, 31 g ai/ha",80
same,"Plant response rating, Lambsquarters","[1]; Preemergence, 62 g ai/ha",100
same,"Plant response rating, Lambsquarters","[1]; Preemergence, 125 g ai/ha",100
same,"Plant response rating, Buckwheat, Wild","[2]; Postemergence, 16 g ai/ha",80
same,"Plant response rating, Buckwheat, Wild","[2]; Postemergence, 31 g ai/ha",85
same,"Plant response rating, Buckwheat, Wild","[2]; Postemergence, 62 g ai/ha",100
same,"Plant response rating, Buckwheat, Wild","[2]; Postemergence, 125 g ai/ha",100
same,"Plant response rating, Buckwheat, Wild","[2]; Preemergence, 16 g ai/ha",60
same,"Plant response rating, Buckwheat, Wild","[2]; Preemergence, 31 g ai/ha",80
same,"Plant response rating, Buckwheat, Wild","[2]; Preemergence, 62 g ai/ha",100
same,"Plant response rating, Buckwheat, Wild","[2]; Preemergence, 125 g ai/ha",100
same,"Plant response rating, Wheat","[3]; Postemergence, 16 g ai/ha",80
same,"Plant response rating, Wheat","[3]; Postemergence, 31 g ai/ha",85
same,"Plant response rating, Wheat","[3]; Postemergence, 62 g ai/ha",100
same,"Plant response rating, Wheat","[3]; Postemergence, 125 g ai/ha",100
same,"Plant response rating, Wheat","[3]; Preemergence, 31 g ai/ha",70
same,"Plant response rating, Wheat","[3]; Preemergence, 62 g ai/ha",80
same,"Plant response rating, Wheat","[3]; Preemergence, 125 g ai/ha",80
same,"Plant response rating, Kochia","[4]; Postemergence, 16 g ai/ha",85
same,"Plant response rating, Kochia","[4]; Postemergence, 31 g ai/ha",100
same,"Plant response rating, Kochia","[4]; Postemergence, 62 g ai/ha",100
same,"Plant response rating, Kochia","[4]; Postemergence, 125 g ai/ha",100
same,"Plant response rating, Kochia","[4]; Preemergence, 16 g ai/ha",85
same,"Plant response rating, Kochia","[4]; Preemergence, 31 g ai/ha",100
same,"Plant response rating, Kochia","[4]; Preemergence, 62 g ai/ha",100
same,"Plant response rating, Kochia","[4]; Preemergence, 125 g ai/ha",100
same,"Plant response rating, Chickweed","[5]; Postemergence, 16 g ai/ha",65
same,"Plant response rating, Chickweed","[5]; Postemergence, 31 g ai/ha",100
same,"Plant response rating, Chickweed","[5]; Postemergence, 62 g ai/ha",100
same,"Plant response rating, Chickweed","[5]; Postemergence, 125 g ai/ha",100
same,"Plant response rating, Chickweed","[5]; Preemergence, 16 g ai/ha",65
same,"Plant response rating, Chickweed","[5]; Preemergence, 31 g ai/ha",70
same,"Plant response rating, Chickweed","[5]; Preemergence, 62 g ai/ha",85
same,"Plant response rating, Chickweed","[5]; Preemergence, 125 g ai/ha",100
same,"Plant response rating, Mustard, Wild","[6]; Postemergence, 16 g ai/ha",65
same,"Plant response rating, Mustard, Wild","[6]; Postemergence, 31 g ai/ha",65
same,"Plant response rating, Mustard, Wild","[6]; Postemergence, 62 g ai/ha",75
same,"Plant response rating, Mustard, Wild","[6]; Postemergence, 125 g ai/ha",90
same,"Plant response rating, Mustard, Wild","[6]; Preemergence, 16 g ai/ha",65
same,"Plant response rating, Mustard, Wild","[6]; Preemergence, 31 g ai/ha",85
same,"Plant response rating, Mustard, Wild","[6]; Preemergence, 62 g ai/ha",85
same,"Plant response rating, Mustard, Wild","[6]; Preemergence, 125 g ai/ha",85
same,"Plant response rating, Russian Thistle","[7]; Postemergence, 16 g ai/ha",80
same,"Plant response rating, Russian Thistle","[7]; Postemergence, 31 g ai/ha",90
same,"Plant response rating, Russian Thistle","[7]; Postemergence, 62 g ai/ha",100
same,"Plant response rating, Russian Thistle","[7]; Postemergence, 125 g ai/ha",100
same,"Plant response rating, Russian Thistle","[7]; Preemergence, 16 g ai/ha",90
same,"Plant response rating, Russian Thistle","[7]; Preemergence, 31 g ai/ha",100
same,"Plant response rating, Russian Thistle","[7]; Preemergence, 62 g ai/ha",100
same,"Plant response rating, Russian Thistle","[7]; Preemergence, 125 g ai/ha",100
same,"Plant response rating, Sowthistle",[8]; [13],100
same,"Plant response rating, Sowthistle",[8]; [14],100
same,"Plant response rating, Sowthistle",[8]; [15],100
same,"Plant response rating, Sowthistle",[8]; [16],100
same,"Plant response rating, Purslane",[9]; [13],60
same,"Plant response rating, Purslane",[9]; [14],100
same,"Plant response rating, Purslane",[9]; [15],100
same,"Plant response rating, Purslane",[9]; [16],100
same,"Plant response rating, Groundsel",[10]; [13],95
same,"Plant response rating, Groundsel",[10]; [14],95
same,"Plant response rating, Groundsel",[10]; [15],100
same,"Plant response rating, Groundsel",[10]; [16],100
same,"Plant response rating, Spanishneedles",[11]; [13],100
same,"Plant response rating, Spanishneedles",[11]; [14],100
same,"Plant response rating, Spanishneedles",[11]; [15],100
same,"Plant response rating, Spanishneedles",[11]; [16],100
"CCOC(=O)c1nc(-c2ccc(Cl)cc2)nc(N)c1Cl [Compound 64, ethyl 6-amino-5-chloro-2-(4-chlorophenyl)-4-pyrimidinecarboxylate]","Plant response rating, Sowthistle",[8]; [17],65
same,"Plant response rating, Sowthistle",[8]; [18],80
same,"Plant response rating, Sowthistle",[8]; [19],80
same,"Plant response rating, Sowthistle",[8]; [20],80
same,"Plant response rating, Sowthistle",[8]; [21],0
same,"Plant response rating, Sowthistle",[8]; [22],0
same,"Plant response rating, Sowthistle",[8]; [23],35
same,"Plant response rating, Sowthistle",[8]; [13],90
same,"Plant response rating, Purslane",[9]; [17],0
same,"Plant response rating, Purslane",[9]; [18],0
same,"Plant response rating, Purslane",[9]; [19],0
same,"Plant response rating, Purslane",[9]; [20],60
same,"Plant response rating, Purslane",[9]; [21],0
same,"Plant response rating, Purslane",[9]; [22],0
same,"Plant response rating, Purslane",[9]; [23],0
same,"Plant response rating, Purslane",[9]; [13],35
same,"Plant response rating, Groundsel",[10]; [17],0
same,"Plant response rating, Groundsel",[10]; [18],0
same,"Plant response rating, Groundsel",[10]; [19],0
same,"Plant response rating, Groundsel",[10]; [20],0
same,"Plant response rating, Groundsel",[10]; [21],0
same,"Plant response rating, Groundsel",[10]; [22],0
same,"Plant response rating, Groundsel",[10]; [23],10
same,"Plant response rating, Groundsel",[10]; [13],40
same,"Plant response rating, Kochia",[12]; [17],65
same,"Plant response rating, Kochia",[12]; [18],75
same,"Plant response rating, Kochia",[12]; [19],85
same,"Plant response rating, Kochia",[12]; [20],90
same,"Plant response rating, Kochia",[12]; [21],0
same,"Plant response rating, Kochia",[12]; [22],0
same,"Plant response rating, Kochia",[12]; [23],10
same,"Plant response rating, Kochia",[12]; [13],15
same,"Plant response rating, Spanishneedles",[11]; [17],65
same,"Plant response rating, Spanishneedles",[11]; [18],75
same,"Plant response rating, Spanishneedles",[11]; [19],90
same,"Plant response rating, Spanishneedles",[11]; [20],90
same,"Plant response rating, Spanishneedles",[11]; [21],0
same,"Plant response rating, Spanishneedles",[11]; [22],0
same,"Plant response rating, Spanishneedles",[11]; [23],0
same,"Plant response rating, Spanishneedles",[11]; [13],35
"Nc1nc(C2CC2)nc(C(=O)[O-])c1Cl.[Na+] [Compound 77, 6-amino-5-chloro-2-cyclopropyl-4-pyrimidinecarboxylic acid monosodium salt]","Plant response rating, Sowthistle",[8]; [24],95
same,"Plant response rating, Sowthistle",[8]; [18],75
same,"Plant response rating, Sowthistle",[8]; [19],90
same,"Plant response rating, Sowthistle",[8]; [20],90
same,"Plant response rating, Sowthistle",[8]; [25],95
same,"Plant response rating, Sowthistle",[8]; [22],80
same,"Plant response rating, Sowthistle",[8]; [23],100
same,"Plant response rating, Sowthistle",[8]; [13],100
same,"Plant response rating, Sowthistle",[8]; [14],100
same,"Plant response rating, Sowthistle",[8]; [15],100
same,"Plant response rating, Purslane",[9]; [24],85
same,"Plant response rating, Purslane",[9]; [18],20
same,"Plant response rating, Purslane",[9]; [19],20
same,"Plant response rating, Purslane",[9]; [20],60
same,"Plant response rating, Purslane",[9]; [25],70
same,"Plant response rating, Purslane",[9]; [22],45
same,"Plant response rating, Purslane",[9]; [23],60
same,"Plant response rating, Purslane",[9]; [13],75
same,"Plant response rating, Purslane",[9]; [14],100
same,"Plant response rating, Purslane",[9]; [15],100
same,"Plant response rating, Groundsel",[10]; [24],100
same,"Plant response rating, Groundsel",[10]; [18],40
same,"Plant response rating, Groundsel",[10]; [19],75
same,"Plant response rating, Groundsel",[10]; [20],80
same,"Plant response rating, Groundsel",[10]; [25],95
same,"Plant response rating, Groundsel",[10]; [22],50
same,"Plant response rating, Groundsel",[10]; [23],60
same,"Plant response rating, Groundsel",[10]; [14],80
same,"Plant response rating, Groundsel",[10]; [15],100
same,"Plant response rating, Kochia",[12]; [24],98
same,"Plant response rating, Kochia",[12]; [18],90
same,"Plant response rating, Kochia",[12]; [19],95
same,"Plant response rating, Kochia",[12]; [20],98
same,"Plant response rating, Kochia",[12]; [25],98
same,"Plant response rating, Kochia",[12]; [22],85
same,"Plant response rating, Kochia",[12]; [23],95
same,"Plant response rating, Kochia",[12]; [13],95
same,"Plant response rating, Kochia",[12]; [14],100
same,"Plant response rating, Kochia",[12]; [15],100
same,"Plant response rating, Spanishneedles",[11]; [24],98
same,"Plant response rating, Spanishneedles",[11]; [18],75
same,"Plant response rating, Spanishneedles",[11]; [19],95
same,"Plant response rating, Spanishneedles",[11]; [20],98
same,"Plant response rating, Spanishneedles",[11]; [25],98
